Experimental data from PubChem BioAssay AID256 (DTP/NCI, 2004).
Several values for one entry are separate records, joined by “and”; a condition that tells them apart may be missing. Identical values can stand only once. Toxic doses and inconclusive results are not listed.

Test system: CD2F1 mice, L1210 leukemia ip, survival T/C
Test: NCI In Vivo Anticancer Drug Screen. Data for tumor model L1210 Leukemia (intraperitoneal) in CD2F1 (CDF1) mice
Conditions: higher = longer survival
Outline: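 Antitumor effect is scored in animals hosting a serially transplanted tumor. Values compare compound-dosed animals against vehicle-only controls as a simple quotient.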

[1] = endpoint: mean survival time, dose: 100.0 mg/kg/injection, schedule: Q04DX003 (ip), vehicle: saline with Tween-80
[2] = endpoint: mean survival time, dose: 200.0 mg/kg/injection, schedule: Q04DX003 (ip), vehicle: saline with Tween-80
[3] = endpoint: mean survival time, dose: 400.0 mg/kg/injection, schedule: Q04DX003 (ip), vehicle: saline with Tween-80
[4] = endpoint: mean survival time, dose: 100.0 mg/kg/injection, schedule: Q01DX009 (ip), vehicle: saline with Tween-80
[5] = endpoint: mean survival time, dose: 200.0 mg/kg/injection, schedule: Q01DX009 (ip), vehicle: saline with Tween-80
[6] = endpoint: mean survival time, dose: 400.0 mg/kg/injection, schedule: Q01DX009 (ip), vehicle: saline with Tween-80
[7] = endpoint: mean survival time, dose: 100.0 mg/kg/injection, schedule: Q01DX001 (ip), vehicle: saline
[8] = endpoint: mean survival time, dose: 200.0 mg/kg/injection, schedule: Q01DX001 (ip), vehicle: saline
[9] = endpoint: mean survival time, dose: 25.0 mg/kg/injection, schedule: Q01DX009 (ip), vehicle: saline with Tween-80
[10] = endpoint: mean survival time, dose: 50.0 mg/kg/injection, schedule: Q01DX009 (ip), vehicle: saline with Tween-80

COc1cc(C=Nc2ccc(-n3ccnc3C)cc2)ccc1N(CCCl)CCCl
T/C (endpoint: mean survival time, dose: 2.5 mg/kg/injection, schedule: Q01DX009 (ip), vehicle: saline with Tween-80): 98 % of control
T/C (endpoint: mean survival time, dose: 5.0 mg/kg/injection, schedule: Q01DX009 (ip), vehicle: saline with Tween-80): 113 % of control
T/C (endpoint: mean survival time, dose: 10.0 mg/kg/injection, schedule: Q01DX009 (ip), vehicle: saline with Tween-80): 112 % of control
T/C (endpoint: mean survival time, dose: 20.0 mg/kg/injection, schedule: Q01DX009 (ip), vehicle: saline with Tween-80): 117 % of control

COc1ccc(CC2c3cc(OC)c(OC)cc3CCN2C(C)=O)cc1 (centres undefined)
T/C [1]: 101 % of control
T/C [2]: 100 % of control
T/C [3]: 100 % of control

O=C1NC2CC3CC(C2)CC1C3
T/C (endpoint: mean survival time, dose: 12.5 mg/kg/injection, schedule: Q04DX003 (ip), vehicle: alcohol): 100 % of control
T/C (endpoint: mean survival time, dose: 25.0 mg/kg/injection, schedule: Q04DX003 (ip), vehicle: alcohol): 92 % of control
T/C (endpoint: mean survival time, dose: 50.0 mg/kg/injection, schedule: Q04DX003 (ip), vehicle: alcohol): 97 % of control

S=C([SH2+])[SH2+].S=C([SH2+])[SH2+].[Pt+2].c1ccc(C[P+](c2ccccc2)(c2ccccc2)c2ccccc2)cc1
T/C (endpoint: mean survival time, dose: 12.0 mg/kg/injection, schedule: Q04DX003 (ip), vehicle: saline): 87 % of control
T/C (endpoint: mean survival time, dose: 25.0 mg/kg/injection, schedule: Q04DX003 (ip), vehicle: saline): 100 % of control
T/C (endpoint: mean survival time, dose: 50.0 mg/kg/injection, schedule: Q04DX003 (ip), vehicle: saline): 94 % of control

CC(C)(C[NH-])C[NH-].[Cl][Pt+2][Cl]
T/C (endpoint: median survival time, dose: 0.2 mg/kg/injection, schedule: Q04DX003 (ip), vehicle: water): 118 % of control and 110 % of control and 111 % of control

CC(=O)NC(=S)NC(C)=O
T/C (endpoint: mean survival time, dose: 75.0 mg/kg/injection, schedule: Q04DX003 (ip), vehicle: saline): 103 % of control
T/C (endpoint: mean survival time, dose: 150.0 mg/kg/injection, schedule: Q04DX003 (ip), vehicle: saline): 103 % of control
T/C (endpoint: mean survival time, dose: 300.0 mg/kg/injection, schedule: Q04DX003 (ip), vehicle: saline): 107 % of control

COC(=O)C(NC(=O)C(C)NC(=O)OCc1ccccc1)C(C)C (centres undefined)
T/C [4]: 97 % of control
T/C [5]: 93 % of control
T/C [6]: 98 % of control

Nc1ccc(C(=O)Nc2ccc(S(=O)(=O)F)cc2)cc1
T/C [7]: 100 % of control
T/C [8]: 96 % of control
T/C (endpoint: mean survival time, dose: 400.0 mg/kg/injection, schedule: Q01DX001 (ip), vehicle: saline): 102 % of control

C[N+](C)(C)CCOC(=O)CCC(=O)OCC[N+](C)(C)C
T/C (endpoint: mean survival time, dose: 0.31 mg/kg/injection, schedule: Q01DX009 (ip), vehicle: saline sonified): 92 % of control
T/C (endpoint: mean survival time, dose: 0.63 mg/kg/injection, schedule: Q01DX009 (ip), vehicle: saline sonified): 96 % of control
T/C (endpoint: mean survival time, dose: 1.25 mg/kg/injection, schedule: Q01DX009 (ip), vehicle: saline sonified): 103 % of control
T/C (endpoint: mean survival time, dose: 6.25 mg/kg/injection, schedule: Q04DX003 (ip), vehicle: saline): 101 % of control
T/C (endpoint: mean survival time, dose: 12.5 mg/kg/injection, schedule: Q04DX003 (ip), vehicle: saline): 100 % of control

CC1(C)OC2COC(c3cc(C(N)=O)n[nH]3)C2O1 (centres undefined)
T/C (endpoint: mean survival time, dose: 100.0 mg/kg/injection, schedule: Q01DX001 (ip), vehicle: saline with Tween-80): 106 % of control
T/C (endpoint: mean survival time, dose: 200.0 mg/kg/injection, schedule: Q01DX001 (ip), vehicle: saline with Tween-80): 101 % of control
T/C (endpoint: mean survival time, dose: 400.0 mg/kg/injection, schedule: Q01DX001 (ip), vehicle: saline with Tween-80): 105 % of control

CN(C)c1ccc(C=C(Cl)Cl)cc1
T/C (endpoint: mean survival time, dose: 100.0 mg/kg/injection, schedule: Q04DX002 (ip), vehicle: other): 87 % of control
T/C (endpoint: mean survival time, dose: 200.0 mg/kg/injection, schedule: Q04DX002 (ip), vehicle: other): 91 % of control
T/C (endpoint: mean survival time, dose: 400.0 mg/kg/injection, schedule: Q04DX002 (ip), vehicle: other): 93 % of control

N#CC(=C1CCN(Cc2ccccc2)CC1)c1ccccc1
T/C (endpoint: median survival time, dose: 50.0 mg/kg/injection, schedule: Q04DX002 (ip), vehicle: saline with Tween-80): 100 % of control
T/C (endpoint: median survival time, dose: 100.0 mg/kg/injection, schedule: Q04DX002 (ip), vehicle: saline with Tween-80): 100 % of control
T/C (endpoint: median survival time, dose: 200.0 mg/kg/injection, schedule: Q04DX002 (ip), vehicle: saline with Tween-80): 111 % of control

Nc1cccc2c1-c1ccccc1C2
T/C (endpoint: mean survival time, dose: 50.0 mg/kg/injection, schedule: Q04DX003 (ip), vehicle: Klucel (hydroxypropylcellulose) (HPC)): 105 % of control
T/C (endpoint: mean survival time, dose: 100.0 mg/kg/injection, schedule: Q04DX003 (ip), vehicle: Klucel (hydroxypropylcellulose) (HPC)): 96 % of control
T/C (endpoint: mean survival time, dose: 200.0 mg/kg/injection, schedule: Q04DX003 (ip), vehicle: Klucel (hydroxypropylcellulose) (HPC)): 102 % of control

CC(=O)C(c1ccccc1)C(c1ccccc1)P(=O)(c1ccccc1)c1ccccc1 (centres undefined)
T/C [4]: 87 % of control
T/C [1]: 97 % of control
T/C [5]: 90 % of control
T/C [2]: 94 % of control
T/C [6]: 96 % of control
T/C [3]: 87 % of control

CCCCCCCCCCCCCCCCC(C(=O)O)C(O)(CC(=O)O)C(=O)O (centres undefined)
T/C [9]: 90 % of control
T/C [10]: 88 % of control

Nc1nc2ccc(Cl)cc2[nH]1
T/C (endpoint: mean survival time, dose: 50.0 mg/kg/injection, schedule: Q01DX009 (ip), vehicle: Klucel (hydroxypropylcellulose) (HPC)): 93 % of control
T/C (endpoint: mean survival time, dose: 100.0 mg/kg/injection, schedule: Q01DX009 (ip), vehicle: Klucel (hydroxypropylcellulose) (HPC)): 91 % of control

COc1cc2cc[n+](C)cc2cc1OC
T/C (endpoint: mean survival time, dose: 25.0 mg/kg/injection, schedule: Q01DX009 (ip), vehicle: water): 98 % of control
T/C (endpoint: mean survival time, dose: 50.0 mg/kg/injection, schedule: Q01DX009 (ip), vehicle: water): 103 % of control
T/C (endpoint: mean survival time, dose: 100.0 mg/kg/injection, schedule: Q01DX009 (ip), vehicle: water): 101 % of control

CCC/C=C(\C#N)C(=O)OC
T/C (endpoint: mean survival time, dose: 75.0 mg/kg/injection, schedule: Q01DX001 (ip), vehicle: saline): 97 % of control

CC(C)(C)c1cc(C(C)(C)C)c(C(=O)O)c(C(C)(C)C)c1Cl
T/C [1]: 101 % of control
T/C [2]: 97 % of control
T/C [3]: 100 % of control

COC1OC(CN2C(=O)c3ccccc3C2=O)C2OC(C)(C)OC12 (centres undefined)
T/C [4]: 98 % of control
T/C [5]: 94 % of control
T/C [6]: 98 % of control

CCCCCCCCCCCCCCCc1nnc(SC)s1
T/C [10]: 95 % of control
T/C [4]: 88 % of control
T/C [1]: 91 % of control
T/C [2]: 87 % of control
T/C [3]: 96 % of control

O=C(O)c1cc(-c2ccc(F)cc2)nc2ccc(F)cc12
T/C [1]: 101 % of control
T/C [2]: 97 % of control

OC1c2ccccc2CC1N1CCCCC1 (centres undefined)
T/C [9]: 95 % of control
T/C [10]: 101 % of control
T/C [4]: 98 % of control

O=C(OC1CCC(c2ccccc2)C1)c1cc([N+](=O)[O-])cc([N+](=O)[O-])c1 (centres undefined)
T/C (endpoint: mean survival time, dose: 75.0 mg/kg/injection, schedule: Q01DX001 (ip), vehicle: other): 92 % of control
T/C (endpoint: mean survival time, dose: 150.0 mg/kg/injection, schedule: Q01DX001 (ip), vehicle: other): 92 % of control
T/C (endpoint: mean survival time, dose: 300.0 mg/kg/injection, schedule: Q01DX001 (ip), vehicle: other): 92 % of control

O=P(O)(NCCCl)NCCCl
T/C [7]: 404 % of control
T/C [8]: 488 % of control
T/C (endpoint: median survival time, dose: 25.0 mg/kg/injection, schedule: Q01DX001 (ip), vehicle: saline with Tween-80): 116 % of control
T/C (endpoint: median survival time, dose: 50.0 mg/kg/injection, schedule: Q01DX001 (ip), vehicle: saline with Tween-80): 160 % of control
T/C (endpoint: median survival time, dose: 75.0 mg/kg/injection, schedule: Q01DX001 (ip), vehicle: saline): 356 % of control
T/C (endpoint: median survival time, dose: 100.0 mg/kg/injection, schedule: Q01DX001 (ip), vehicle: saline with Tween-80): 160 % of control and 185 % of control
T/C (endpoint: median survival time, dose: 100.0 mg/kg/injection, schedule: Q01DX001 (ip), vehicle: saline): 232 % of control and 410 % of control
T/C (endpoint: median survival time, dose: 100.0 mg/kg/injection, schedule: Q01DX001 (iv), vehicle: saline): 219 % of control
T/C (endpoint: median survival time, dose: 125.0 mg/kg/injection, schedule: Q01DX001 (ip), vehicle: saline): 202 % of control
T/C (endpoint: median survival time, dose: 150.0 mg/kg/injection, schedule: Q01DX001 (ip), vehicle: saline): 205 % of control
T/C (endpoint: median survival time, dose: 150.0 mg/kg/injection, schedule: Q01DX001 (iv), vehicle: saline): 86 % of control
T/C (endpoint: median survival time, dose: 200.0 mg/kg/injection, schedule: Q01DX001 (ip), vehicle: saline with Tween-80): 191 % of control

CN1C(=O)C=CC1=O
T/C (endpoint: mean survival time, dose: 0.5 mg/kg/injection, schedule: Q01DX009 (ip), vehicle: saline): 101 % of control
T/C (endpoint: mean survival time, dose: 1.0 mg/kg/injection, schedule: Q01DX009 (ip), vehicle: saline): 95 % of control
T/C (endpoint: mean survival time, dose: 2.0 mg/kg/injection, schedule: Q01DX009 (ip), vehicle: saline): 93 % of control
T/C (endpoint: mean survival time, dose: 4.0 mg/kg/injection, schedule: Q01DX009 (ip), vehicle: saline): 95 % of control
